This passage reports Ki results from patent US12559529B2, “NPY2 receptor agonists” (Boehringer Ingelheim International GmbH, priority 2019, dated 2026).

*1 amine or outer side, *2 acyl side, *3 side chain or, on linkers, in order; H or OH if unused. Where a SMILES comes first, the peptide text is derived from it. Side-chain parts run from the residue outwards. The star is where a group is joined. C18 diacid = O=C(O)CCCCCCCCCCCCCCCCC(=O)*; γGlu = O=C(O)[C@H](CCC(=O)[*:2])N[*:1]; Isovaleryl = CC(C)CC(=O)*; AEEA = NCCOCCOCC(=O)O

This experiment addresses T1, Human Neuropeptide Y2 Receptor (Homo sapiens, UniProt P49146).
T1 construct: purchased CHEMICON HTS066M
T1 sequence (P49146 1-381): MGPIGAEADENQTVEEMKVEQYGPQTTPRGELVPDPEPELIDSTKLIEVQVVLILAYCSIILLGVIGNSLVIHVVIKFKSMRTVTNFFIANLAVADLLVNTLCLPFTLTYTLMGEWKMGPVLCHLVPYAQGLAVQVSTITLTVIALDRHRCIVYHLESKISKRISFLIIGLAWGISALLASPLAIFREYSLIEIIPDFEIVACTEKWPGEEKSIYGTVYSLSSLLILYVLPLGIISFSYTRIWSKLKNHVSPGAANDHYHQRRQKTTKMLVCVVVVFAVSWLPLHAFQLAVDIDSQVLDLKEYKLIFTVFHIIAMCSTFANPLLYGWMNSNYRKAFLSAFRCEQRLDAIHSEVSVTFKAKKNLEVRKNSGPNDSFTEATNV
Kind of experiment: Radioligand binding competition assay (RLB). To be noted: Table 3; human 125I-PYY (1-36) 0.02 nM, Y2 receptor membranes; read-out: Ki. In outline: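 Competition binding on human Y2 receptor membranes, 0.5 μg protein/well, in 50 mM HEPES, 5 mM MgCl2, 1 mM CaCl2, pH 7.4, 0.2% ovalbumin; peptides diluted from 1 mM DMSO stocks.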
Turning to `CC[C@H](C)[C@H](NC(=O)[C@H](CCCCNC(=O)COCCOCCNC(=O)COCCOCCNC(=O)CC[C@H](NC(=O)CCCCCCCCCCCCCCCCC(=O)O)C(=O)O)NC(=O)[C@H](CCC(=O)O)NC(=O)[C@@H]1CCCN1C(=O)[C@H](C)NC(=O)CC(C)C)C(=O)N[C@@H](CCC(=O)O)C(=O)N[C@@H](CCC(=O)O)C(=O)N[C@@H](CCC(=O)O)C(=O)N[C@@H](C)C(=O)N[C@@H](CO)C(=O)N1CCC[C@H]1C(=O)N[C@@H](CCC(=O)O)C(=O)N[C@@H](CCC(=O)O)C(=O)N[C@@H](CC(C)C)C(=O)N[C@@H](CCC(N)=O)C(=O)N[C@@H](CCCNC(=N)N)C(=O)N[C@@H](Cc1ccc(O)cc1)C(=O)N[C@@H](Cc1ccc(O)cc1)C(=O)N[C@H](C(=O)N[C@@H](CO)C(=O)N[C@@H](CC(C)C)C(=O)N[C@@H](CCCNC(=N)N)C(=O)N[C@@H](Cc1c[nH]cn1)C(=O)N[C@@H](Cc1ccc(O)cc1)C(=O)N[C@@H](Cc1ccc(O)cc1)C(=O)N[C@@H](CC(N)=O)C(=O)N[C@@H](Cc1c[nH]c2ccccc12)C(=O)N[C@@H](CC(C)C)C(=O)N[C@H](C(=O)N[C@@H](CCCNC(=N)N)C(=O)N[C@@H](CCC(N)=O)C(=O)N[C@@H](CCCNC(=N)N)C(=O)N[C@@H](Cc1ccc(O)cc1)C(N)=O)[C@@H](C)O)C(C)C` [Compound 210, N{alpha-4}-(3-methylbutanoyl)-N{epsilon-7}-[2-(2-{2-[2-(2-{2-[(4S)-4-carboxy-4-(17-carboxyheptadecanamido)butanamido]ethoxy}ethoxy)acetamido]ethoxy}ethoxy)acetamido]-[4A,7K,8I,9E,11E,18Q,22V,28Y,30W,31L]hPYY (4-36)] (Isovaleryl-APEK([AEEA-AEEA-γGlu-C18 diacid])IEEEASPEELQRYYVSLRHYYNWLTRQRY-NH2), the Ki was found to be 10.5 nM.

For the compound `CC(C)CC(=O)N[C@@H](C)C(=O)N1CCC[C@H]1C(=O)N[C@@H](CCC(=O)O)C(=O)N[C@@H](CCCCNC(=O)COCCOCCNC(=O)COCCOCCNC(=O)CC[C@H](NC(=O)CCCCCCCCCCCCCCCCC(=O)O)C(=O)O)C(=O)N1CCC[C@H]1C(=O)N[C@@H](CCC(=O)O)C(=O)N[C@@H](CCC(=O)O)C(=O)N[C@@H](CC(=O)O)C(=O)N[C@@H](C)C(=O)N[C@@H](CO)C(=O)N[C@@H](CCC(=O)O)C(=O)N[C@@H](C)C(=O)N[C@@H](CCC(=O)O)C(=O)N[C@@H](CC(C)C)C(=O)N[C@@H](CCC(N)=O)C(=O)N[C@@H](CCCNC(=N)N)C(=O)N[C@@H](Cc1ccc(O)cc1)C(=O)N[C@@H](Cc1ccc(O)cc1)C(=O)N[C@H](C(=O)N[C@@H](CO)C(=O)N[C@@H](CC(C)C)C(=O)N[C@@H](CCCNC(=N)N)C(=O)N[C@@H](Cc1c[nH]cn1)C(=O)N[C@@H](Cc1ccc(O)cc1)C(=O)N[C@@H](Cc1ccc(O)cc1)C(=O)N[C@@H](CC(N)=O)C(=O)N[C@@H](Cc1c[nH]c2ccccc12)C(=O)N[C@@H](CC(C)C)C(=O)N[C@H](C(=O)N[C@@H](CCCNC(=N)N)C(=O)N[C@@H](CCC(N)=O)C(=O)N[C@@H](CCCNC(=N)N)C(=O)N[C@@H](Cc1ccc(O)cc1)C(N)=O)[C@@H](C)O)C(C)C` [Compound 189, N{alpha-4}-(3-methylbutanoyl)-N{epsilon-7}-[2-(2-{2-[2-(2-{2-[(4S)-4-carboxy-4-(17-carboxyheptadecanamido)butanamido]ethoxy}ethoxy)acetamido]ethoxy}ethoxy)acetamido]-[4A,7K,9E,14E,15A,18Q,22V,28Y,30W,31L]hPYY (4-36)], the Ki amounted to 2.08 nM.

As for `CC(C)CC(=O)N[C@@H](C)C(=O)N1CCC[C@H]1C(=O)N[C@@H](CCC(=O)O)C(=O)N[C@@H](CCCCNC(=O)COCCOCCNC(=O)COCCOCCNC(=O)CC[C@H](NC(=O)CCCCCCCCCCCCCCCCC(=O)O)C(=O)O)C(=O)N1CCC[C@H]1C(=O)N[C@@H](CCC(=O)O)C(=O)N[C@@H](CCC(=O)O)C(=O)N[C@@H](CC(=O)O)C(=O)N[C@@H](CO)C(=O)N[C@@H](CO)C(=O)N1CCC[C@H]1C(=O)N[C@@H](CCC(=O)O)C(=O)N[C@@H](CCC(=O)O)C(=O)N[C@@H](CC(C)C)C(=O)N[C@@H](CCC(N)=O)C(=O)N[C@@H](CCCNC(=N)N)C(=O)N[C@@H](Cc1ccc(O)cc1)C(=O)N[C@@H](Cc1ccc(O)cc1)C(=O)N[C@H](C(=O)N[C@@H](CCC(=O)O)C(=O)N[C@@H](CC(C)C)C(=O)N[C@@H](CCCNC(=N)N)C(=O)N[C@@H](Cc1c[nH]cn1)C(=O)N[C@@H](Cc1ccc(O)cc1)C(=O)N[C@@H](Cc1ccc(O)cc1)C(=O)N[C@@H](CC(N)=O)C(=O)N[C@@H](Cc1c[nH]c2ccccc12)C(=O)N[C@@H](CC(C)C)C(=O)N[C@H](C(=O)N[C@@H](CCCNC(=N)N)C(=O)N[C@@H](CCC(N)=O)C(=O)N[C@@H](CCCNC(=N)N)C(=O)N[C@@H](Cc1ccc(O)cc1)C(N)=O)[C@@H](C)O)C(C)C` [Compound 177, N{alpha-4}-(3-methylbutanoyl)-N{epsilon-7}-[2-(2-{2-[2-(2-{2-[(4S)-4-carboxy-4-(17-carboxyheptadecanamido)butanamido]ethoxy}ethoxy)acetamido]ethoxy}ethoxy)acetamido]-[4A,7K,9E,12S,18Q,22V,23E,28Y,30W,31L]hPYY (4-36)], the inhibition constant Ki was determined as 2.55 nM.

Consider `CC(C)CC(=O)N[C@@H](C)C(=O)N1CCC[C@H]1C(=O)N[C@@H](CCC(=O)O)C(=O)N[C@@H](CCCCNC(=O)COCCOCCNC(=O)COCCOCCNC(=O)CC[C@H](NC(=O)CCCCCCCCCCCCCCCCC(=O)O)C(=O)O)C(=O)N1CCC[C@H]1C(=O)N[C@@H](CCC(=O)O)C(=O)N[C@@H](CCC(=O)O)C(=O)N[C@@H](CCC(=O)O)C(=O)N[C@H](C(=O)N[C@@H](CO)C(=O)N1CCC[C@H]1C(=O)N[C@@H](CCC(=O)O)C(=O)N[C@@H](CCC(=O)O)C(=O)N[C@@H](CC(C)C)C(=O)N[C@@H](CCC(N)=O)C(=O)N[C@@H](CCCNC(=N)N)C(=O)N[C@@H](Cc1ccc(O)cc1)C(=O)N[C@@H](Cc1ccc(O)cc1)C(=O)N[C@H](C(=O)N[C@@H](CO)C(=O)N[C@@H](CC(C)C)C(=O)N[C@@H](CCCNC(=N)N)C(=O)N[C@@H](Cc1c[nH]cn1)C(=O)N[C@@H](Cc1ccc(O)cc1)C(=O)N[C@@H](Cc1ccc(O)cc1)C(=O)N[C@@H](CC(N)=O)C(=O)N[C@@H](Cc1c[nH]c2ccccc12)C(=O)N[C@@H](CC(C)C)C(=O)N[C@H](C(=O)N[C@@H](CCCNC(=N)N)C(=O)N[C@@H](CCC(N)=O)C(=O)N[C@@H](CCCNC(=N)N)C(=O)N[C@@H](Cc1ccc(O)cc1)C(N)=O)[C@@H](C)O)C(C)C)[C@@H](C)O` [Compound 213, N{alpha-4}-(3-methylbutanoyl)-N{epsilon-7}-[2-(2-{2-[2-(2-{2-[(4S)-4-carboxy-4-(17-carboxyheptadecanamido)butanamido]ethoxy}ethoxy)acetamido]ethoxy}ethoxy)acetamido]-[4A,7K,9E,11E,12T,18Q,22V,28Y,30W,31L]hPYY (4-36)] (Isovaleryl-APEK([AEEA-AEEA-γGlu-C18 diacid])PEEETSPEELQRYYVSLRHYYNWLTRQRY-NH2), for which the Ki was found to be 6.54 nM.
